Data from publication PMC9133036 (Nature Communications, 2022).
Where “and” joins values, the source holds several entries; their conditions need not be identical. Equal values may be shown once. Entries after “also recorded” stand apart in the source; their conditions may differ.

Columns and labels:
Format in all cases: cell-based
OX2R1-406 = molecular target: T1, OX2R1-406 (Homo sapiens, UniProt O43614); experiment: IP accumulation assay, C-terminally truncated OX2R1-406; conditions: for % IP accumulation: OX2R C25 short; for Emax: relative to OX2R WT with the same ligand;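 for % IP accumulation: 100% is the full-length wild-type OX2R maximal IP response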
T1 construct: the receptor construct contained residues 1–406 of wild-type human OX2R; expressed in transfected cells; host or cells: HEK293
T1 sequence (O43614 1-406): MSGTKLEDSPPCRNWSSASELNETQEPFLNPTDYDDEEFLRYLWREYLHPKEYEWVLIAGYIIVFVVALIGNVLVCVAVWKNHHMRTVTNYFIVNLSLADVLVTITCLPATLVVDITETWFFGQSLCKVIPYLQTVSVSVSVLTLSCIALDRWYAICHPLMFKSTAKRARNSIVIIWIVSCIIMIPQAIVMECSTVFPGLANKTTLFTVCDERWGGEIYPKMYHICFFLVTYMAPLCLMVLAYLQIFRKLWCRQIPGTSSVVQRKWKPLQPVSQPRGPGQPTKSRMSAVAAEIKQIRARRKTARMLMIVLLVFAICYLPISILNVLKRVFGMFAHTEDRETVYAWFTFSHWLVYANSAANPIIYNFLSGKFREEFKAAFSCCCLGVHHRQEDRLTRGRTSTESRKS
Protocol: The cloning, expression, purification, cryo-EM data collection, and structure determination for the two OX2R-G protein complexes described in this paper were carried out independently. For the OX2R-mGsqiN complex the receptor construct contained residues 1–406 of wild-type human OX2R (OX2R^1–406). […] The resulting construct was cloned into a modified pFastBac (ThermoFisher) baculovirus expression vector with the HA signal sequence followed by a FLAG tag at the N-terminus. We were unable to isolate a stable complex between OX2R and full-length wild-type Gαq using the co-expression and purification strategy described below. Instead, an engineered Gαq construct called mGαsqiN was made by modifying the chimeric Gα protein ‘mini-Gs/q71’ previously described. Briefly, the linker […] was deleted and residues 1–27 at the N terminus was replaced by residues 1–30 of Gαi1. A second pFastBac baculovirus was made with this mini-GαqiN gene. An additional pFastBac-Dual baculovirus was made with human Gβ1 and human […] genes. An 8xHis tag was placed at the N-terminus of […]. […] After 48 h, cells were harvested and stored at −80 °C.
The IP assay was adapted from a prior precedent. HEK293 cells were maintained in DMEM-high glucose (Millipore Sigma) supplemented with 5% fetal bovine serum (Corning) and penicillin-streptomycin (Millipore Sigma). Receptor constructs used were the full-length wild-type (or mutant) human OX1R and OX2R sequences cloned into pCDNA3. To enhance the Emax in the IP assay, a plasmid encoding full-length human Gαq subunit[66] was co-transfected into HEK293 cells with plasmids encoding orexin receptor constructs using Lipofectamine 3000 (Thermo Fisher). 24 h after transfection, the cells were plated on poly-D-lysine coated (Millipore Sigma) tissue culture-treated 96 well white plates with clear bottoms (Perkin Elmer) at 30,000 cells per well in Inositol-free DMEM (MP Biomedicals) supplemented with 5% fetal bovine serum, 4 mM L-glutamine (Millipore Sigma), penicillin-streptomycin, and about 5 uCi (5 ul) per ml myo-[2-3H] inositol (Perkin Elmer). The following day, the media was replaced with agonists that were diluted in HBSS (Millipore Sigma) containing 10 mM lithium chloride (Millipore Sigma) and incubated at 37 °C for 45 min. Then agonists were removed and cells were lysed on ice for 30 min with 10 mM formic acid (Millipore Sigma). 1.25 mg of poly-lysine coated YSI SPA beads (Perkin Elmer) was added to each well. The plates were mixed on an orbital shaker for 30 min. The plates were read on a MicroBeta scintillation counter (Perkin Elmer) the following day. IP accumulation assays on different constructs were performed in n ≥ 3 independent experiments (each done in duplicate), where n is shown in Supplementary Table 2.

OX2R V114A = molecular target: T2, OX2R V114A (Homo sapiens, UniProt O43614, V114A); experiment: β-arrestin PathHunter assay, OX2R V114A
T2 construct: expressed in transfected cells; host or cells: CHO-K1 stably expressing EA β-arrestin2
Protocol: β-Arrestin recruitment activity was measured by using the PathHunter system (DiscoveRX) according to the manufacturer’s instruction. Receptor constructs used were the full-length wild-type (or mutant) human OX2R sequences cloned into pCMV-ProLink (DiscoveRX). CHO-K1 cells stably expressing EA β-arrestin2 (DiscoveRX) were plated on 384 well white plates (Thermo Fisher) at 4000 cells/well in HamF12 (Wako Pure Chemical Industries) supplemented with 10% fetal bovine serum (Corning) and penicillin-streptomycin (Wako Pure Chemical Industries) and incubated overnight at 37 °C under 5% CO2. Cells were transfected with plasmids encoding wild type or each mutant ProLink-tagged human OX2R using FuGENE HD (Promega). […] Detection reagent was added and incubated for 1 h at room temperature. Luminescent signal was detected using an EnVision plate reader (PerkinElmer). β-arrestin assays on different constructs were performed in two or three independent experiments (each done in quadruplicate). Dose response curves (shown in Supplementary Fig. 8) were fitted to the three-parameter model ‘log(agonist) vs response’ in GraphPad Prism to determine pEC50 values.

human OX2R = molecular target: T3, human OX2R (Homo sapiens, UniProt O43614); experiment: Inhibition of forskolin-stimulated cAMP production (Gi signaling), OX2R + Gαi1; conditions: for stimulation of Gi1 as reduction in cAMP levels after forskolin treatment: HEK293 cells transfected with OX2R and Gαi1; for % Forskolin stimulation: OX2R + Gi
T3 construct: expressed in transfected cells; host or cells: HEK293
T3 sequence (O43614 1-444): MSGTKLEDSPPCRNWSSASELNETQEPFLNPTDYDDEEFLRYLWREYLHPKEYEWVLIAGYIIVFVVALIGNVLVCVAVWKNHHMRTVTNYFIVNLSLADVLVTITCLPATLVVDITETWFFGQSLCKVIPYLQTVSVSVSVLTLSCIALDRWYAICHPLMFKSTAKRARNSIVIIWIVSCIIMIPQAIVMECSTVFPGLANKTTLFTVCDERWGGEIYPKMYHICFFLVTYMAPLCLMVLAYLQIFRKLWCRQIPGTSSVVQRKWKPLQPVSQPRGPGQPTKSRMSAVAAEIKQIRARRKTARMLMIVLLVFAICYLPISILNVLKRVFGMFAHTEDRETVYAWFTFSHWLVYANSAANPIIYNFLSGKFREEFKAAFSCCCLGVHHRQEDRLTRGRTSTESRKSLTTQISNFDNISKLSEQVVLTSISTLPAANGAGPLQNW
Protocol: To measure Gi signaling[67], HEK293 cells were transfected with pGloSensor™−22F cAMP Plasmid (Promega) and CMV expression plasmid encoding human OX2R. To enhance the signal for the cAMP assay, we co-transfected a Gi expression plasmid (CMV-driven) in which the full-length human Gαi1 subunit sequence was cloned into pcDNA3. The following day, cells were harvested and washed with assay buffer, HBSS with 20 mM HEPES pH 7.4 (Millipore Sigma). Cells were suspended in assay buffer containing 0.5 mg/ml Luciferin (Gold Biotechnology) and plated on 96 well tissue culture-treated white plates with opaque bottoms (Thermo Fisher). The cells were incubated at 37 °C for 90 min. Forskolin (Millipore Sigma) diluted in assay buffer was added to wells for a final concentration of 5 mM. Luminescence was read at room temperature repeatedly in a CLARIOstar microplate reader (BMG Labtech) until the signal stopped increasing. Agonist diluted in assay buffer was added from a 7X stock and again the plates were read repeatedly until the signal was stable.

T2 sequence (O43614 whole entry V114A): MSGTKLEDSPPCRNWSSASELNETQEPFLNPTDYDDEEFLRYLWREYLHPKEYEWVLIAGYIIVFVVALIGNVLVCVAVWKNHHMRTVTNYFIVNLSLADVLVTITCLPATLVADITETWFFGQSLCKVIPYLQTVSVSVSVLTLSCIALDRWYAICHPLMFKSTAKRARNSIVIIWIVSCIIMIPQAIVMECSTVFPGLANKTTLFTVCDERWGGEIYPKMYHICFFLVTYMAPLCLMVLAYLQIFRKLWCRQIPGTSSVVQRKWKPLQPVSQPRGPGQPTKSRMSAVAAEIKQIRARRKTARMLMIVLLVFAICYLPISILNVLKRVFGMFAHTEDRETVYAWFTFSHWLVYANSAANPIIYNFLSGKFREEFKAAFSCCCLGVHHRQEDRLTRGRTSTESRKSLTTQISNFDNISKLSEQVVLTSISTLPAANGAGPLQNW

## COC(=O)N1CCC[C@H](NS(C)(=O)=O)[C@@H]1CO[C@H]1CC[C@@H](c2ccccc2)CC1 [TAK-925, methyl (2R,3S)−3-[(methylsulfonyl)amino]−2-{[(cis−4-phenylcyclohexyl)oxy]methyl}piperidine-1-carboxylate]
OX2R1-406; IP accumulation
  EC50: 5.4 nM
OX2R1-406; TAK-925 conc (log, M) -7.39
  % IP accumulation: 102.09% and 80.64% and 87.71% and 69.65% and 70.45% and 93.38%
OX2R1-406; TAK-925 conc (log, M) -7.86
  % IP accumulation: 87.29% and 59.28% and 70.66% and 54.93% and 62.49% and 77.19%
OX2R1-406
  Emax: 100
OX2R V114A; β-arrestin recruitment
  EC50: 2200 nM
Human OX2R
  stimulation of Gi1 as reduction in cAMP levels after forskolin treatment: poor ability to stimulate Gi1; also recorded: minimal diminution of cAMP signal
Human OX2R; log [Agonist] -5.00
  % Forskolin stimulation: 72.69% and 86.21% and 88.94%
Human OX2R; log [Agonist] -5.52
  % Forskolin stimulation: 88.35% and 93.40% and 97.54%
Human OX2R; log [Agonist] -6.00
  % Forskolin stimulation: 94.60% and 96.68% and 103.97%
Human OX2R; log [Agonist] -6.52
  % Forskolin stimulation: 100.56% and 102.28% and 109.64%
Human OX2R; log [Agonist] -7.00
  % Forskolin stimulation: 100.76% and 107.19% and 105.95%
Human OX2R; log [Agonist] -7.52
  % Forskolin stimulation: 105.87% and 108.11% and 120.96%
Human OX2R; log [Agonist] -8.00
  % Forskolin stimulation: 107.95% and 108.44% and 107.03%
Human OX2R; log [Agonist] -8.52
  % Forskolin stimulation: 103.47% and 109.30% and 118.87%

## orexin B
OX2R1-406; OXB conc (log, M) -6.95, listed as OXB
  % IP accumulation: 116.05% and 97.72% and 102.67% and 64.00% and 80.15% and 76.35% and 110.96%
OX2R1-406; OXB conc (log, M) -7.43, listed as OXB
  % IP accumulation: 91.34% and 86.13% and 87.29% and 57.27% and 82.96% and 71.01% and 111.84%
OX2R1-406; OXB conc (log, M) -7.91, listed as OXB
  % IP accumulation: 79.86% and 83.63% and 74.72% and 64.39% and 71.59% and 62.47% and 94.62%
OX2R1-406; OXB conc (log, M) -8.39, listed as OXB
  % IP accumulation: 46.18% and 59.23% and 44.98% and 53.61% and 63.91% and 47.69% and 72.05%
OX2R1-406; OXB conc (log, M) -9.82, listed as OXB
  % IP accumulation: 4.24% and 6.17% and 0.00% and 5.40% and 1.80% and 6.02% and 6.79%
OX2R1-406; OXB conc (log, M) -10.29, listed as OXB
  % IP accumulation: 0.00% and 3.23%
OX2R1-406
  Emax: 100
OX2R V114A; V114A, OxB concentration -8.00 (log, M), listed as OxB
  beta-arrestin recruitment fold change: 1.594 fold and 2.704 fold and 1.365 fold and 1.888 fold
Human OX2R
  stimulation of Gi1 as reduction in cAMP levels after forskolin treatment: poor ability to stimulate Gi1; also recorded: minimal diminution of cAMP signal
Human OX2R; log [Agonist] -5.00, listed as OXB
  % Forskolin stimulation: 62.35% and 75.49% and 85.20%
Human OX2R; log [Agonist] -5.52, listed as OXB
  % Forskolin stimulation: 65.51% and 74.64% and 79.34%
Human OX2R; log [Agonist] -6.00, listed as OXB
  % Forskolin stimulation: 67.69% and 72.61% and 81.55%
Human OX2R; log [Agonist] -6.52, listed as OXB
  % Forskolin stimulation: 83.40% and 83.94% and 91.79%
Human OX2R; log [Agonist] -7.00, listed as OXB
  % Forskolin stimulation: 104.15% and 101.20% and 102.30%
Human OX2R; log [Agonist] -7.52, listed as OXB
  % Forskolin stimulation: 105.47% and 101.46% and 103.50%
Human OX2R; log [Agonist] -8.00, listed as OXB
  % Forskolin stimulation: 105.90% and 100.54% and 102.29%
Human OX2R; log [Agonist] -8.52, listed as OXB
  % Forskolin stimulation: 101.42% and 105.57% and 98.48%
